From patent US9765067B2, “Thiophen-2-yl-pyridin-2-yl-1H-pyrazole-4-carboxylic acid derivatives and the use thereof as soluble guanylate cyclase activators” (Novartis AG, priority 2014, dated 2017)

Each molecule was assayed against T1, soluble guanylate cyclase (human GUCYA3/GUCYB3) overexpressed in CHO cells (Homo sapiens, UniProt Q02108+Q02153) (assay: CHO cellular assay (cGMP production, HTRF)). Conditions: CHO K1 clone 8E10 overexpressing human sGC, Cisbio HTRF, 1 h room temperature, 1 mM IBMX, 20 uM ODQ, minimum quantification limit 0.5 nM.
T1 construct: expressed in transfected cells
T1 sequence (Q02108 1-690 partner): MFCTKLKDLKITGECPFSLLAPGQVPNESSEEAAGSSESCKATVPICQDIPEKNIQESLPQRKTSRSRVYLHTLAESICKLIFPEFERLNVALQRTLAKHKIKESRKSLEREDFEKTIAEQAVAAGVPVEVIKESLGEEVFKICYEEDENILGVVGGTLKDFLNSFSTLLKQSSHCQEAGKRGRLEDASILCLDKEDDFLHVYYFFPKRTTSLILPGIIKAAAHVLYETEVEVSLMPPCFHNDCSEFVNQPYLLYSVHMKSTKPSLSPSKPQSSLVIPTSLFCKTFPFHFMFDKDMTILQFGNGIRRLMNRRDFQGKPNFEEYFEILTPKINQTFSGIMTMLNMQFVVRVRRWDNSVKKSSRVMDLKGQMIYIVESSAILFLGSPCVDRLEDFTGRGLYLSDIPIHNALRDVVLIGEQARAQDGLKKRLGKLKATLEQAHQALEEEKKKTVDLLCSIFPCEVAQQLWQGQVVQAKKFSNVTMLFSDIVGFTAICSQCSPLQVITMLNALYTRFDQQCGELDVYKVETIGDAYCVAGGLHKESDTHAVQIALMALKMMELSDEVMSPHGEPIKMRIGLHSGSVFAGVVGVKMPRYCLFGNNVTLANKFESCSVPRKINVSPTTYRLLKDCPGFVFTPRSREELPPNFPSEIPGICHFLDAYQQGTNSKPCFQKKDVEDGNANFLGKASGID
T1 sequence (Q02153 1-619): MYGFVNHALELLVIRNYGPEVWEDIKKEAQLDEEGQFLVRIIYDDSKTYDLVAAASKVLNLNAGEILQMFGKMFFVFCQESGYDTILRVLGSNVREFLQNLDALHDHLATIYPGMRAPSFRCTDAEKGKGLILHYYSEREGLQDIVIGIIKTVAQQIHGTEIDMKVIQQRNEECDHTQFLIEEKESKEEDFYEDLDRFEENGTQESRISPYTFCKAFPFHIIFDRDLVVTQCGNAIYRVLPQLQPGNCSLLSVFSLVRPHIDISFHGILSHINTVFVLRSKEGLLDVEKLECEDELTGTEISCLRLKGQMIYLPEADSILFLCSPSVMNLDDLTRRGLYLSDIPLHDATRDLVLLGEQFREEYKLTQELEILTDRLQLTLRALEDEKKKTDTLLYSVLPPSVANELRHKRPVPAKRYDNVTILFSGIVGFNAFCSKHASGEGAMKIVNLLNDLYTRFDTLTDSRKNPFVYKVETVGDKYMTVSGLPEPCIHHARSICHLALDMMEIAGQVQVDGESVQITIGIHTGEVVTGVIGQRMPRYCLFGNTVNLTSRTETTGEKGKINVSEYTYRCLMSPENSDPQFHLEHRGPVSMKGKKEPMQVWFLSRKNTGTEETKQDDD
Format: cell-based
Outline: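 Stable CHO K1 clone expressing human GUCYA3/GUCYB3. Compounds applied 1 h at room temperature in HBSS, 0.1% BSA, 1 mM IBMX, 20 uM ODQ, 0.5% DMSO. cGMP measured by HTRF and interpolated from a standard curve; EC50 from 4-parameter sigmoidal fit.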

Compared with `CCc1csc(-c2cccc(-n3ncc(C(=O)O)c3C(F)(F)F)n2)c1COc1ccc(C2CCN(CC(F)(F)F)CC2)cc1C` [Example 18-6, 1-(6-(4-Ethyl-3-((2-methyl-4-(1-(2,2,2-trifluoroethyl)piperidin-4-yl)phenoxy)methyl)thiophen-2-yl)pyridin-2-yl)-5-(trifluoromethyl)-1H-pyrazole-4-carboxylic acid], `Cc1cc(C2CCN(CC(F)(F)F)CC2)ccc1NCc1c(C)csc1-c1cccc(-n2ncc(C(=O)O)c2C(F)(F)F)n1` [Example 20-3, 1-(6-(4-Methy1-3-(((2-methy1-4-(1-(2,2,2-trifluoroethyl)piperidin-4-yl)phenyl)amino)methyl)thiophen-2-yl)pyridin-2-yl)-5-(trifluoromethyl)-1H-pyrazole-4-carboxylic acid] is 2.2-fold higher in EC50: 18 nM for the first, 39 nM for the second.

First: Cc1cc(C2CCN(C(=O)C3CC3)CC2)ccc1NCc1c(C)csc1-c1cccc(-n2ncc(C(=O)O)c2C(F)(F)F)n1 [Example 19, 1-(6-(3-(((4-(1-(Cyclopropanecarbonyl)piperidin-4-yl)-2-methylphenyl)amino)methyl)-4-methylthiophen-2-yl)pyridin-2-yl)-5-(trifluoromethyl)-1H-pyrazole-4-carboxylic acid]
Second: Cc1csc(-c2cccc(-n3ncc(C(=O)O)c3C(F)(F)F)n2)c1CNc1ccc(C2CCN(C(=O)C3CC3)CC2)cc1 [Example 20-1, 1-(6-(3-(((4-(1-(Cyclopropanecarbonyl)piperidin-4-yl)phenyl)amino)methyl)-4-methylthiophen-2-yl)pyridin-2-yl)-5-(trifluoromethyl)-1H-pyrazole-4-carboxylic acid]
The EC50 of the first is 12-fold lower: 1 nM for the first, 12 nM for the second.

`CCc1c(C(=O)O)cnn1-c1cccc(-c2sc(C)c(C)c2CNc2ccc(C3CCN(C(=O)C4CC4)CC3)cc2C)n1` [Example 20-2, 1-(6-(3-(((4-(1-(Cyclopropanecarbonyl)piperidin-4-yl)-2-methylphenyl)amino)methyl)-4,5-dimethylthiophen-2-yl)pyridin-2-yl)-5-ethyl-1H-pyrazole-4-carboxylic acid] and `Cc1cc(CCc2ccc(C3CCN(C(=O)C4CC4)CC3)cc2C)c(-c2cccc(-n3ncc(C(=O)O)c3C(F)(F)F)n2)s1` [Example 25, 1-(6-(3-(4-(1-(Cyclopropanecarbonyl)piperidin-4-yl)-2-methylphenethyl)-5-methylthiophen-2-yl)pyridin-2-yl)-5-(trifluoromethyl)-1H-pyrazole-4-carboxylic acid] cannot be ordered by EC50: no more than 0.5 nM for the first, no more than 0.5 nM for the second.

First: CCC(=O)N1CCC(c2ccc(OCc3cc(C)sc3-c3cccc(-n4ncc(C(=O)O)c4C(F)(F)F)n3)c(C)c2)CC1 [Example 21, 1-(6-(5-Methyl-3-((2-methyl-4-(1-propionylpiperidin-4-yl)phenoxy)methyl)thiophen-2-yl)pyridin-2-yl)-5-(trifluoromethyl)-1H-pyrazole-4-carboxylic acid]
Second: CCc1cc(COc2ccc(C3CCN(C(=O)C4CC4)CC3)cc2C)c(-c2cccc(-n3ncc(C(=O)O)c3C(F)(F)F)n2)s1 [Example 22-1, 1-(6-(3-((4-(1-(Cyclopropanecarbonyl)piperidin-4-yl)-2-methylphenoxy)methyl)-5-ethylthiophen-2-yl)pyridin-2-yl)-5-(trifluoromethyl)-1H-pyrazole-4-carboxylic acid]
The EC50 of the first is lower: no more than 0.5 nM for the first, 2 nM for the second. The first is the more potent here.

First: O=C(O)c1cnn(-c2cccc(-c3sccc3COc3ccc4c(c3)CCN(Cc3ccccn3)C4)n2)c1C(F)(F)F [Example 23, 1-(6-(3-(((2-(Pyridin-2-ylmethyl)-1,2,3,4-tetrahydroisoquinolin-6-yl)oxy)methyl)thiophen-2-yl)pyridin-2-yl)-5-(trifluoromethyl)-1H-pyrazole-4-carboxylic acid]
Second: Cc1cc(C2CCN(C3COC3)CC2)ccc1OCc1ccsc1-c1cccc(-n2ncc(C(=O)O)c2C(F)(F)F)n1 [Example 29, 1-(6-(3-((2-Methyl-4-(1-(oxetan-3-yl)piperidin-4-yl)phenoxy)methyl)thiophen-2-yl)pyridin-2-yl)-5-(trifluoromethyl)-1H-pyrazole-4-carboxylic acid]
The EC50 of the first is 1.8-fold lower: 38 nM for the first, 67 nM for the second.

First: CCc1cc(NCc2cc(C)sc2-c2cccc(-n3ncc(C(=O)O)c3C(F)(F)F)n2)ccc1C1CCN(C(=O)C2CC2)CC1 [Example 24, 1-(6-(3-(((4-(1-(Cyclopropanecarbonyl)piperidin-4-yl)-3-ethylphenyl)amino)methyl)-5-methylthiophen-2-yl)pyridin-2-yl)-5-(trifluoromethyl)-1H-pyrazole-4-carboxylic acid]
Second: Cc1cc(COc2ccc(C3CCN(C(=O)C4CC4)CC3)c(CO)c2)c(-c2cccc(-n3ncc(C(=O)O)c3C(F)(F)F)n2)s1 [Example 30, 1-(6-(3-((4-(1-(Cyclopropanecarbonyl)piperidin-4-yl)-3-(hydroxymethyl)phenoxy)methyl)-5-methylthiophen-2-yl)pyridin-2-yl)-5-(trifluoromethyl)-1H-pyrazole-4-carboxylic acid]
The EC50 of the first is 10-fold lower: 6 nM for the first, 61 nM for the second.

`Cc1cc(C2CCN(C(=O)C3CC3)CC2)ccc1CCc1ccsc1-c1cccc(-n2ncc(C(=O)O)c2C(F)(F)F)n1` [Example 26, 1-(6-(3-(4-(1-(Cyclopropanecarbonyl)piperidin-4-yl)-2-methylphenethyl)thiophen-2-yl)pyridin-2-yl)-5-(trifluoromethyl)-1H-pyrazole-4-carboxylic acid] and `O=C(O)c1cnn(-c2cccc(-c3sccc3CCc3ccc(C4CCN(C(=O)C5CC5)CC4)cc3)n2)c1C(F)(F)F` [Example 27, 1-(6-(3-(4-(1-(Cyclopropanecarbonyl)piperidin-4-yl)phenethyl)thiophen-2-yl)pyridin-2-yl)-5-(trifluoromethyl)-1H-pyrazole-4-carboxylic acid] cannot be ordered by EC50: no more than 0.5 nM for the first, no more than 0.5 nM for the second.

Compared with `O=C(O)c1cnn(-c2cccc(-c3sccc3CNc3ccc(C4CCN(C(=O)C5CC5)CC4)cc3)n2)c1C(F)(F)F` [Example 28, 1-(6-(3-(((4-(1-(Cyclopropanecarbonyl)piperidin-4-yl)phenyl)amino)methyl)thiophen-2-yl)pyridin-2-yl)-5-(trifluoromethyl)-1H-pyrazole-4-carboxylic acid], `O=C(O)c1cnn(-c2cccc(-c3sccc3COc3ccc(C4CCN(C(=O)C5CC5)CC4)cc3C(F)(F)F)n2)c1C(F)(F)F` [Example 33-1, 1-(6-(3-((4-(1-(Cyclopropanecarbonyl)piperidin-4-yl)-2-(trifluoromethyl)phenoxy)methyl)thiophen-2-yl)pyridin-2-yl)-5-(trifluoromethyl)-1H-pyrazole-4-carboxylic acid] is 5.1-fold higher in EC50: 4.5 nM for the first, 23 nM for the second. The first is the more potent here.

`CCC(=O)N1CCC(c2ccc(COc3ccsc3-c3cccc(-n4ncc(C(=O)O)c4C(F)(F)F)n3)cc2)CC1` [Example 31, 1-(6-(3-((4-(1-Propionylpiperidin-4-yl)benzyl)oxy)thiophen-2-yl)pyridin-2-yl)-5-(trifluoromethyl)-1H-pyrazole-4-carboxylic acid] and `CCC(=O)N1CCC(c2ccc(OCc3ccsc3-c3cccc(-n4ncc(C(=O)O)c4C(F)(F)F)n3)c(C(F)(F)F)c2)CC1` [Example 33-2, (6-(3-((4-(1-Propionylpiperidin-4-yl)-2-(trifluoromethyl)phenoxy)methyl)thiophen-2-yl)pyridin-2-yl)-5-(trifluoromethyl)-1H-pyrazole-4-carboxylic acid] are within 1.5-fold of each other in EC50: 13 nM for the first, 15 nM for the second.

In the case of `Cc1cc(COc2ccc(C3CCN(C(=O)C4CC4)CC3)cc2C(F)(F)F)c(-c2cccc(-n3ncc(C(=O)O)c3C(F)(F)F)n2)s1` [Example 32, 1-(6-(3-((4-(1-(Cyclopropanecarbonyl)piperidin-4-yl)-2-(trifluoromethyl)phenoxy)methyl)-5-methylthiophen-2-yl)pyridin-2-yl)-5-(trifluoromethyl)-1H-pyrazole-4-carboxylic acid], the EC50 is reported as no more than 0.5 nM.
